Experimental data published in patent US7465729B2, “Methods of treatment of menopause and perimenopause using eszopiclone” (Sepracor Inc., priority 2004, dated 2008).

Legend:
conscious dogs = experiment: Dose escalation safety study, cardiovascular and respiratory parameters
Protocol: To establish the safety of eszopiclone, a dose escalation study was carried out. Cardiovascular and respiratory parameters were evaluated in conscious dogs following acute intravenous administration of (R)-, (S)- or racemic zopiclone at three doses (3, 5 and 12 mg/kg).

mice = experiment: Antimuscarinic activity in vivo: oxotremorine induced salivation; settings: doses up to 300 mg/kg, p.o.
Protocol: Eszopiclone was evaluated for antimuscarinic activity in vivo.

[1] = acute intravenous, 3, 5 and 12 mg/kg

CN1CCN(C(=O)O[C@@H]2c3nccnc3C(=O)N2c2ccc(Cl)cn2)CC1 [(R)-zopiclone]
cardiotoxicity, as evidenced by the electrocardiogram (ECG) (conscious dogs; [1]): No evidence of cardiotoxicity | effect on blood pressure (conscious dogs; [1]): no effect | effect on heart rate (conscious dogs; [1]): no effect | Blood gases and blood chemistries (pH, pCO2, pO2, hematocrit, and lactate) (conscious dogs; acute intravenous, 3, 5 and 12 mg/kg, all dose groups): remained unaffected | hemodynamic effect (conscious dogs; intravenous, 12 mg/kg): did not produce a consistent hemodynamic effect | antagonism of oxotremorine induced salivation (mice): neither (R)-, (S)-, nor racemic zopiclone significantly antagonized oxotremorine induced salivation
